Measured values reported in PubChem BioAssay (NCI).
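Each compound was tested at five concentrations against cells in 96-well plates for 48 hours. Here, GI50 denotes the concentration required for 50% inhibition of growth. Definition used: TGI = concentration required for complete inhibition of growth.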

Assays:
Assay in all cases: NCI-60 cell line screen, 48 h
[1] = system: HCT-116 colon
[2] = system: HOP-62 NSCLC
[3] = system: MDA-MB-231 breast
[4] = system: UO-31 renal
[5] = system: RXF 393 renal
[6] = system: NCI/ADR-RES ovarian
[7] = system: OVCAR-3 ovarian
[8] = system: HL-60(TB) leukemia
[9] = system: A549 NSCLC
[10] = system: OVCAR-4 ovarian
[11] = system: OVCAR-5 ovarian
[12] = system: COLO 205 colon
[13] = system: A498 renal
[14] = system: SK-MEL-28 melanoma
[15] = system: UACC-62 melanoma
[16] = system: NCI-H226 lung
[17] = system: HS 578T breast
[18] = system: TK-10 renal
[19] = system: SR leukemia
[20] = system: SF-295 CNS
[21] = system: MALME-3M melanoma
[22] = system: RPMI-8226 leukemia
[23] = system: U251 CNS
[24] = system: 786-0 renal
[25] = system: DU-145 prostate
[26] = system: HCT-15 colon
[27] = system: SK-OV-3 ovarian
[28] = system: CAKI-1 renal
[29] = system: MCF7 breast
[30] = system: SNB-75 CNS
[31] = system: EKVX NSCLC
[32] = system: SN12C renal
[33] = system: NCI-H522 lung
[34] = system: MDA-MB-435
[35] = system: IGROV1 ovarian
[36] = system: NCI-H460 lung
[37] = system: HT29 colon
[38] = system: OVCAR-8 ovarian
[39] = system: HOP-92 NSCLC
[40] = system: SNB-19 CNS
[41] = system: SF-268 CNS
[42] = system: UACC-257 melanoma
[43] = system: CCRF-CEM leukemia
[44] = system: ACHN renal
[45] = system: SW-620 colon
[46] = system: SF-539 CNS
[47] = system: HCC-2998 colon
[48] = system: SK-MEL-2 melanoma
[49] = system: T-47D breast
[50] = system: KM12 colon
[51] = system: LOX IMVI melanoma
[52] = system: K-562 leukemia
[53] = system: MOLT-4 leukemia
[54] = system: BT-549 breast
[55] = system: SK-MEL-5 melanoma
[56] = system: NCI-H23 lung
[57] = system: PC-3 prostate
[58] = system: M14 melanoma

C=C(C)[C@@H]1CC[C@]2(C(=O)OC)CC[C@]3(C)[C@H](CC[C@@H]4[C@@](C)(CCc5nn[nH]n5)[C@H](C(=C)C)CC[C@]43C)[C@@H]12
GI50 [1]: 26.9 µM | TGI [1]: > 100 µM | GI50 [2]: 18.7 µM | TGI [2]: 41.1 µM | GI50 [3]: 15.5 µM | TGI [3]: 30.8 µM | GI50 [4]: 10.9 µM | TGI [4]: 23 µM | GI50 [5]: 15.7 µM | TGI [5]: 30.1 µM | GI50 [6]: 20.8 µM | TGI [6]: 73.2 µM | GI50 [7]: 13.5 µM | TGI [7]: 27 µM | GI50 [8]: 19 µM | TGI [8]: 62.3 µM | GI50 [9]: 12.4 µM | TGI [9]: 34.9 µM | GI50 [10]: 14.7 µM | TGI [10]: 48.1 µM | GI50 [11]: 19.4 µM | TGI [11]: 35.9 µM | GI50 [12]: 19.7 µM | TGI [12]: 47.9 µM | GI50 [13]: 22.4 µM | TGI [13]: 60.7 µM | GI50 [14]: 12.9 µM | TGI [14]: 27.8 µM | GI50 [15]: 5.35 µM | TGI [15]: 19.6 µM | GI50 [16]: 15.3 µM | TGI [16]: 47.7 µM | GI50 [17]: 19.8 µM | TGI [17]: 53.8 µM | GI50 [18]: 30.9 µM | TGI [18]: > 100 µM | GI50 [19]: 11.4 µM | TGI [19]: 49.4 µM | GI50 [20]: 13.6 µM | TGI [20]: 44.3 µM | GI50 [21]: 16.3 µM | TGI [21]: 31.7 µM | GI50 [22]: 4.07 µM | TGI [22]: 29.8 µM | GI50 [23]: 15.4 µM | TGI [23]: 32.4 µM | GI50 [24]: 53.4 µM | TGI [24]: > 100 µM | GI50 [25]: 16 µM | TGI [25]: 32.4 µM | GI50 [26]: 13.2 µM | TGI [26]: 35.7 µM | GI50 [27]: 25.6 µM | TGI [27]: 82.8 µM | GI50 [28]: 10.2 µM | TGI [28]: 35 µM | GI50 [29]: 17 µM | TGI [29]: 70.5 µM | GI50 [30]: 15.9 µM | TGI [30]: 34.1 µM | GI50 [31]: 19.2 µM | TGI [31]: 61 µM | GI50 [32]: 14.7 µM | TGI [32]: 32.8 µM | GI50 [33]: 17.2 µM | TGI [33]: 51.5 µM | GI50 [34]: 17.6 µM | TGI [34]: 44.2 µM | GI50 [35]: 17.4 µM | TGI [35]: 46.2 µM | GI50 [36]: 20.5 µM | TGI [36]: 44 µM | GI50 [37]: 20.6 µM | TGI [37]: 73.3 µM | GI50 [38]: 28.6 µM | TGI [38]: > 100 µM | GI50 [39]: 8.08 µM | TGI [39]: 22.3 µM | GI50 [40]: 15.4 µM | TGI [40]: 35.7 µM | GI50 [41]: 15.7 µM | TGI [41]: 34.9 µM | GI50 [42]: 23.9 µM | TGI [42]: 79.9 µM | GI50 [43]: 6.72 µM | TGI [43]: 37.2 µM | GI50 [44]: 15 µM | TGI [44]: 48.1 µM | GI50 [45]: 19.3 µM | TGI [45]: 46 µM | GI50 [46]: 16.5 µM | TGI [46]: 30.7 µM | GI50 [47]: 15.8 µM | TGI [47]: 30.5 µM | GI50 [48]: 16.7 µM | TGI [48]: 39.5 µM | GI50 [49]: 15.2 µM | TGI [49]: 84.3 µM | GI50 [50]: 10.7 µM | TGI [50]: 25 µM | GI50 [51]: 16 µM | TGI [51]: 29.5 µM | GI50 [52]: 18.4 µM | TGI [52]: > 100 µM | GI50 [53]: 11.7 µM | TGI [53]: 40.8 µM | GI50 [54]: 33.2 µM | TGI [54]: > 100 µM | GI50 [55]: 11.4 µM | TGI [55]: 24.4 µM | GI50 [56]: 16.4 µM | TGI [56]: 39.4 µM | GI50 [57]: 3.46 µM | TGI [57]: 17.2 µM | GI50 [58]: 27.5 µM | TGI [58]: > 100 µM
